pIC50: −log10 of the molar value. Like-named read-outs stand apart in the source and are kept apart here.

One assay has as its target CpCDPK1 (Cryptosporidium parvum (strain Iowa II), UniProt A3FQ16). Nature of the assay: biochemical. The following applies: Table 1; KinaseGlo, Syntide 2 peptide substrate; read-out: CpCDPK1 IC50. For orientation: In Kinase-Glo more light means more ATP remaining.
A further assay addresses TgCDPK1 (Toxoplasma gondii, UniProt Q9BJF5). Nature of the assay: biochemical. The following applies: read-out: TgCDPK1 IC50.
Setting [1] is: Table 1, KinaseGlo, Syntide 2 peptide substrate.

Chain of CpCDPK1 (A3FQ16 1-538): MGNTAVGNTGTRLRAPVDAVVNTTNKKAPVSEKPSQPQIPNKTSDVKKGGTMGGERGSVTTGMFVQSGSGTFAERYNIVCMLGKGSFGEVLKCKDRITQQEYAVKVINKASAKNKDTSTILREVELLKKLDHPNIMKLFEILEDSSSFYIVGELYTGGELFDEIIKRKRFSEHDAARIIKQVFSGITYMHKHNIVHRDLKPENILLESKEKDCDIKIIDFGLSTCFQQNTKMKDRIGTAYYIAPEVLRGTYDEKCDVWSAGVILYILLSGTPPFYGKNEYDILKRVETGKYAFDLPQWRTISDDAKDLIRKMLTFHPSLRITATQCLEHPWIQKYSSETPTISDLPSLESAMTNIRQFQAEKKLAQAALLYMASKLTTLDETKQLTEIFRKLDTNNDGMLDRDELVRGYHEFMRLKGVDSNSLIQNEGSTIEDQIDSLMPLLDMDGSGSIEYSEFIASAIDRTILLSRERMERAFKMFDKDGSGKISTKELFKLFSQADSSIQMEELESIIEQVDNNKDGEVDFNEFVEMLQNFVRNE
Chain of TgCDPK1 (Q9BJF5 1-507): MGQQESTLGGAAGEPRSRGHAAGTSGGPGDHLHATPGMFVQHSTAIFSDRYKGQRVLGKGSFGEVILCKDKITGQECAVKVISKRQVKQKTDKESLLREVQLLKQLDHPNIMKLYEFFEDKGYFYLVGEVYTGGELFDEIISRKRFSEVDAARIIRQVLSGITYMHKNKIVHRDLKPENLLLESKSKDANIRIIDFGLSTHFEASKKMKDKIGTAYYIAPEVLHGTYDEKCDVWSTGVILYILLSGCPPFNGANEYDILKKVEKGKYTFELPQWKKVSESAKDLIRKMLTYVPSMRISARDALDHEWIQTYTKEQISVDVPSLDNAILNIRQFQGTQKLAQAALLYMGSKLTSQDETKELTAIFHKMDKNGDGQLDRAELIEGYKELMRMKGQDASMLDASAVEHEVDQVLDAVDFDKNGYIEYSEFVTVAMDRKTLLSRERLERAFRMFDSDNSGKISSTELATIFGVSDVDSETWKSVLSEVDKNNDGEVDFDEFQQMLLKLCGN

Consider `CCOc1ccc2cc(-c3nn(C(C)(C)C)c4ncnc(N)c34)ccc2c1` [Compound 4, 1-tert-butyl-3-(6-ethoxynaphthalen-2-yl)-1H-pyrazolo[3,4-d]pyrimidin-4-amine, reference compound], for which the pIC50 (in general, the negative decadic logarithm of the IC50, by convention in mol/L) on CpCDPK1 is 7.37.
For `NC(=O)c1c(-c2ccc3ccccc3c2)nn(CC2CCNCC2)c1N` [Compound 6, 5-amino-3-(naphthalen-2-yl)-1-(piperidin-4-ylmethyl)-1H-pyrazole-4-carboxamide], the pIC50 at CpCDPK1 is 7.19; on TgCDPK1 it was 7.46.
As for `Nc1ncnc2c1c(-c1ccc3ccccc3c1)nn2CC1CCNCC1` [Compound 7, 3-(naphthalen-2-yl)-1-(piperidin-4-ylmethyl)-1H-pyrazolo[3,4-d]pyrimidin-4-amine, reference compound], at CpCDPK1, the negative-log IC50 (pIC50) was 9.00.
As for `CCOc1ccc2cc(-c3nn(CC4CCN(C)CC4)c(N)c3C(N)=O)ccc2c1` [Compound 8, 5-amino-3-(6-ethoxynaphthalen-2-yl)-1-((1-methylpiperidin-4-yl)methyl)-1H-pyrazole-4-carboxamide], the pIC50 is 8.05 on CpCDPK1 and 7.96 on TgCDPK1.
For the molecule `COc1ccc2cc(-c3nn(CC4CCN(C)CC4)c(N)c3C(N)=O)ccc2c1` [Compound 10, 5-amino-3-(6-methoxynaphthalen-2-yl)-1-((1-methylpiperidin-4-yl)methyl)-1H-pyrazole-4-carboxamide], the pIC50 on CpCDPK1 was 7.85; on TgCDPK1 (setting [1]) it was 7.46.
As for `COc1ccc2cc(-c3n[nH]c(N)c3C(N)=O)ccc2c1` [Compound 11, 5-amino-3-(6-methoxynaphthalen-2-yl)-1H-pyrazole-4-carboxamide], the pIC50 was 7.32 at CpCDPK1 and 7.09 at TgCDPK1.
`CCn1nc(-c2ccc3ccccc3c2)c(C(N)=O)c1N` [Compound 12, 5-amino-1-ethyl-3-(naphthalen-2-yl)-1H-pyrazole-4-carboxamide]: the pIC50 on CpCDPK1 is 7.96; at TgCDPK1, 8.10.
Turning to `CC(C)n1nc(-c2ccc3ccccc3c2)c(C(N)=O)c1N` [Compound 13, 5-amino-1-isopropyl-3-(naphthalen-2-yl)-1H-pyrazole-4-carboxamide], the pIC50 on CpCDPK1 is 8.15.
Regarding `CC(C)Cn1nc(-c2ccc3ccccc3c2)c(C(N)=O)c1N` [Compound 14, 5-amino-1-isobutyl-3-(naphthalen-2-yl)-1H-pyrazole-4-carboxamide], the pIC50 on CpCDPK1 is 7.80.
For the molecule `NC(=O)c1c(-c2ccc3ccccc3c2)nn(CC2CC2)c1N` [Compound 15, 5-amino-1-(cyclopropylmethyl)-3-(naphthalen-2-yl)-1H-pyrazole-4-carboxamide], the negative logarithm of the IC50 (pIC50) is 8.00 at CpCDPK1 and 8.15 on TgCDPK1.
Taken in the same sequence, the figures for `NC(=O)c1c(-c2ccc3ccccc3c2)nn(CC2CCCCC2)c1N` [Compound 16, 5-amino-1-(cyclohexylmethyl)-3-(naphthalen-2-yl)-1H-pyrazole-4-carboxamide] were 6.82 and 7.23.
For `NC(=O)c1c(-c2ccc3ccccc3c2)nn(C2CCCCC2)c1N` [Compound 17, 5-amino-1-cyclohexyl-3-(naphthalen-2-yl)-1H-pyrazole-4-carboxamide], the pIC50 is 7.80 on CpCDPK1 and 7.96 on TgCDPK1.
Taken in the same sequence, the figures for `CN1CCC(n2nc(-c3ccc4ccccc4c3)c(C(N)=O)c2N)CC1` [Compound 20, 5-amino-1-(1-methylpiperidin-4-yl)-3-(naphthalen-2-yl)-1H-pyrazole-4-carboxamide] were 7.89 and 7.59.
Regarding `CN1CCC(Cn2nc(-c3ccc4ccccc4c3)c(C(N)=O)c2N)CC1` [Compound 21, 5-amino-1-((1-methylpiperidin-4-yl)methyl)-3-(naphthalen-2-yl)-1H-pyrazole-4-carboxamide], the pIC50 at CpCDPK1 is 7.77; on TgCDPK1, 7.41.
For `NC(=O)c1c(-c2ccc3ccccc3c2)nn(CCO)c1N` [Compound 22, 5-amino-1-(2-hydroxyethyl)-3-(naphthalen-2-yl)-1H-pyrazole-4-carboxamide] the same measures were 7.68 and 7.82.
Taken in the same sequence, the figures for `NC(=O)c1c(-c2ccc3ccccc3c2)nn(CCN2CCOCC2)c1N` [Compound 23, 5-amino-1-(2-morpholinoethyl)-3-(naphthalen-2-yl)-1H-pyrazole-4-carboxamide] were 7.74 and 8.30.
Take `CC(C)(C)n1nc(-c2ccc3cc(O)ccc3c2)c(C(N)=O)c1N` [Compound 24, 5-amino-1-(tert-butyl)-3-(6-hydroxynaphthalen-2-yl)-1H-pyrazole-4-carboxamide]: the pIC50 on CpCDPK1 was 7.77.
In the case of `Cc1oc2ccccc2c1-c1nn(C(C)(C)C)c(N)c1C(N)=O` [Compound 27, 5-amino-1-(tert-butyl)-3-(2-methylbenzofuran-3-yl)-1H-pyrazole-4-carboxamide], on TgCDPK1, the pIC50 is 6.15.
As to `Cn1nc(N)c2ccc(-c3nn(C(C)(C)C)cc3C(N)=O)cc21` [Compound 29, 3-(3-amino-1-methyl-1H-indazol-6-yl)-1-(tert-butyl)-1H-pyrazole-4-carboxamide], the pIC50 on TgCDPK1 (setting [1]) was 7.77.
Consider `Cn1c(N)nc2cc(-c3nn(C(C)(C)C)c(N)c3C(N)=O)ccc21` [Compound 33, 5-amino-3-(2-amino-1-methyl-1H-benzo[d]imidazol-5-yl)-1-(tert-butyl)-1H-pyrazole-4-carboxamide], for which the pIC50 at TgCDPK1 is 6.14.
On to `CC(C)(C)n1nc(-c2cnc3cc(C(F)(F)F)ccc3c2)c(C(N)=O)c1N` [Compound 1555, 5-amino-1-tert-butyl-3-(7-(trifluoromethyl)quinolin-3-yl)-1H-pyrazole-4-carboxamide], for which, on CpCDPK1, the negative logarithm of the IC50 (pIC50) was 6.65.
The same measure, in the same setting: for `CCOc1ccc2cc(-c3nn(CC4CCCCC4)c(N)c3C(N)=O)cnc2c1` [Compound 1574, 5-amino-1-(cyclohexylmethyl)-3-(7-ethoxyquinolin-3-yl)-1H-pyrazole-4-carboxamide] the value was 7.52.
For the molecule `CCOc1ccc2cc(-c3nn(CC(F)(F)F)c(N)c3C(N)=O)cnc2c1` [Compound 1575, 5-amino-3-(7-ethoxyquinolin-3-yl)-1-(2,2,2-trifluoroethyl)-1H-pyrazole-4-carboxamide], at CpCDPK1, the negative logarithm of the IC50 (pIC50) was 8.30.
On the same count and under the same terms, for `CC(C)(C)n1nc(-c2cnc3cc(OCC4CC4)ccc3c2)c(C(N)=O)c1N` [Compound 1585, 5-amino-1-(tert-butyl)-3-(7-(cyclopropylmethoxy)quinolin-3-yl)-1H-pyrazole-4-carboxamide] the value was 8.05; for `CC(C)(C)n1nc(-c2cnc3cc(OC4CC4)ccc3c2)c(C(N)=O)c1N` [Compound 1586, 5-amino-1-(tert-butyl)-3-(7-cyclopropoxyquinolin-3-yl)-1H-pyrazole-4-carboxamide], 8.30.
For `CCc1ccc2cc(-c3nn(C(C)(C)C)c(N)c3C(N)=O)cnc2c1` [Compound 1592, 5-amino-1-(tert-butyl)-3-(7-ethylquinolin-3-yl)-1H-pyrazole-4-carboxamide], the negative-log IC50 (pIC50) on CpCDPK1 was 7.07.
Same read-out and setting: in the case of `CCOc1ccc2cc(-c3nn(C(C)C(C)C)c(N)c3C(N)=O)cnc2c1` (stereo not shown) [Compound 1628, 5-amino-3-(7-ethoxyquinolin-3-yl)-1-(3-methylbutan-2-yl)-1H-pyrazole-4-carboxamide] it was 8.30; in that of `CCOc1ccc2cc(-c3nn(C4CCOC4)c(N)c3C(N)=O)ccc2n1` (stereo not shown) [Compound 1634, 5-amino-3-(2-ethoxyquinolin-6-yl)-1-(tetrahydrofuran-3-yl)-1H-pyrazole-4-carboxamide], 8.52.

The record behind these values is US9518026B2, “5-aminopyrazole-4-carboxamide inhibitors of CDPK1 from T. gondii and C. parvum” (UNIVERSITY OF WASHINGTON THROUGH ITS CENTER FOR …, priority 2013, dated 2016).
